# According to patent publication US10682323B2, “Therapeutic agent for glaucoma” (TOA EIYO LTD., priority 2016, dated 2020):
# Experiments:
# [1] = Determination of Log D value (flask shaking method); format: physicochemical; conditions: pH 6.8; partition between n-octanol and second solution for the disintegration test (16th revised Japanese Pharmacopoeia), room temperature
# Experimental: More specifically, the Log D is more preferably 1.6 or more and 2.3 or less, still more preferably 1.8 or more and 2.2 or less, and particularly preferably 1.8 or more and 2.1 or less. Here, the Log D value in the present invention is a compound partition coefficient between n-octanol and a second solution of a disintegration test of the 16th revised Japanese Pharmacopoeia.
# The Log D value was determined using a flask shaking method, where a test compound partition coefficient between n-octanol and the second solution for the disintegration test defined in the 16th revised Japanese Pharmacopoeia was calculated. Specifically, in a microtube containing 2 mg of the test compound, n-octanol (0.25 mL) and the second solution for the disintegration test (0.25 mL) were mixed. The tube was shaken in a multi shaker at room temperature for 60 minutes, and allowed to stand until the two phases were completely separated. In the microtube, 10 μL of an n-octanol phase was diluted with 190 μL of 85% methanol and mixed, thereby obtaining an organic phase test solution. 100 μL of the second solution phase for the disintegration test was diluted with 100 μL of 50% methanol, and mixed, thereby obtaining an aqueous phase test solution. The organic phase test solution and the aqueous phase test solution were filtered, respectively, and the concentration of the test compound in these test solutions were measured, using high performance liquid chromatography. Then, from the measured concentration and dilution rate, the Log D was calculated.
# That is, the Log D of the present specification is represented by the following equation: Log D=Log10([concentration of test compound in organic phase test solution]/[concentration of test compound in aqueous phase test solution])+1 [Equation 1]
# The second solution for the disintegration test herein refers to, as defined in the 16th revised Japanese Pharmacopoeia, a liquid obtained by adding to 250 mL of a 0.2 mol/L potassium dihydrogenphosphate reagent, 118 mL of a 0.2 mol/L sodium hydroxide reagent, and water for adjusting to 1000 mL volume.
# human sGC = target: T1, human sGC (Homo sapiens, UniProt Q02153); test: Measurement of sGC activating effect in CHO-K1 cells stably expressing human sGC and mouse CNGA2; format: cell-based; conditions: CHO-K1 cells expressing human sGC and mouse CNGA2, Fura2 calcium readout, 10 μmol/L ODQ in assay buffer
# T1 construct: expressed in transfected cells; host or cells: CHO-K1 cells (Chinese hamster ovary), stably co-expressing mouse CNGA2 as the calcium read-out channel
# T1 sequence (Q02153 1-619): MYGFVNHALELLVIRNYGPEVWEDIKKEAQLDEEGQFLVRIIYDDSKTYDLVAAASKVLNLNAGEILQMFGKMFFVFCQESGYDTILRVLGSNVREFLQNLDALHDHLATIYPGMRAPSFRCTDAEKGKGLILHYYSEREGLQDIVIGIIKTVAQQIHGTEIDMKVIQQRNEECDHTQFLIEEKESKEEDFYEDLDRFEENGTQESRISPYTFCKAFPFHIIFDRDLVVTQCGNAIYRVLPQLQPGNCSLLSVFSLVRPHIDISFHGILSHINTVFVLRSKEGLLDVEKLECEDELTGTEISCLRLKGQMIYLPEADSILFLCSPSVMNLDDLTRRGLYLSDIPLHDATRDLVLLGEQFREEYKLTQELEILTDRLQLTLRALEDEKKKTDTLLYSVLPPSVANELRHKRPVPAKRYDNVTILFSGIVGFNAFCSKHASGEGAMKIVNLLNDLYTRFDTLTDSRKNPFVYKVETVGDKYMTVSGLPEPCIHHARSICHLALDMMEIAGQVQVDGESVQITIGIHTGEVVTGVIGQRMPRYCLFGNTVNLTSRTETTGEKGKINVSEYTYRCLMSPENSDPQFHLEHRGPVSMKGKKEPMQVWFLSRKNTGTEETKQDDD
# T1 sequence (Q02108 1-690 partner): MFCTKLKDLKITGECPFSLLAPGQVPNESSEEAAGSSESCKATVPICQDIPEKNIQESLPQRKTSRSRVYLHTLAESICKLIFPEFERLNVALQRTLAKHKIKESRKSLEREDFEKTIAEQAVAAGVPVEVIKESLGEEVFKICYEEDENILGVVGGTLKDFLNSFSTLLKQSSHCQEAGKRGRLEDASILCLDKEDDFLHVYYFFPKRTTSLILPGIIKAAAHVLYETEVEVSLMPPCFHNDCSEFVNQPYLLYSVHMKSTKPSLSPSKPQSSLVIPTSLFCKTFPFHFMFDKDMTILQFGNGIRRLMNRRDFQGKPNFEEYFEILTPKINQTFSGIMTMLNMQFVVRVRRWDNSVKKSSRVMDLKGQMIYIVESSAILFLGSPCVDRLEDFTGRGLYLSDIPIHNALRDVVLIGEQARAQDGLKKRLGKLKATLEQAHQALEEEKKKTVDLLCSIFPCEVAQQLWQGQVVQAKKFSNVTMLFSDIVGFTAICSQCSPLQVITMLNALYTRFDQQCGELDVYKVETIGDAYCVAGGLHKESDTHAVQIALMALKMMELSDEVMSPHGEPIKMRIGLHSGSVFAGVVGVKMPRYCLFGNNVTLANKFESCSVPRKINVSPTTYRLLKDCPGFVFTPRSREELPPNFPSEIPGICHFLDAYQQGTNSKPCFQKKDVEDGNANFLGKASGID
# Experimental: Chinese Hamster ovary cells (CHO-K1 cells) modified for stably expressing human sGC α subunit and β subunit, and a mouse cyclic nucleotide gated channel (CNGA2) were used in the test.
# The CHO-K1 cells stably expressing human sGC and mouse CNGA2 were cultured at 37° C. in a F-12 medium supplemented with 10% (v/v) fetal bovine serum (FBS), penicillin (100 U/mL), streptomycin (100 μg/mL), G418 (250 μg/mL), and Zeocin (250 μg/mL). The cells were suspended in a culture medium, seeded in a 96 well plate, and cultured at 37° C. for 24 hours. The cells were washed with an assay buffer 1 (140 mmol/L of sodium chloride, 5 mmol/L of potassium chloride, 0.5 mmol/L of magnesium chloride, 0.01 mmol/L of calcium chloride, 10 mmol/L of glucose, 0.4 mmol/L of magnesium sulfate, 10 mmol/L of 4-(2-hydroxyethyl)piperazine-1-yl ethanesulfonic acid, 125 μmol/L of sulfinpyrazone, pH 7.4), and then an indicator solution in which Fura2-AM as a fluorescent Ca2+ indicator is dissolved in assay buffer 1 at a concentration of 5 μmol/L was added thereto, and cultured at 37° C. for 60 minutes. The culture medium was removed, the cells were washed with assay buffer 1, the test compound solution was added thereto, and cultured at room temperature for 10 minutes. The plate was mounted on a fluorescence microplate reader (FlexStation II, available from Molecular Devices) with setting of excitation wavelengths of 340 and 380 nm and a detection wavelength of 510 nm, an intracellular calcium concentration was measured as a fluorescent intensity ratio obtained from each excitation wavelength.
# In this test, the solution of the test compound was prepared by dissolving each test compound in DMSO at a concentration of 10 mmol/L, and then diluting the solution with assay buffer 2 (140 mmol/L of sodium chloride, 5 mmol/L of potassium chloride, 0.5 mmol/L of magnesium chloride, 1 mmol/L of calcium chloride, 10 mmol/L of glucose, 0.4 mmol/L of magnesium sulfate, 10 mmol/L of 4-(2-hydroxyethyl)piperazine-1-yl ethanesulfonic acid, 125 μmol/L of sulfinpyrazone, 100 μmol/L of isobutylmethylxanthine, 10 μmol/L of 1H-[1,2,4]-oxadiazole [4,3-a]quinoxaline-1-on (hereinafter, referred to as ODQ), pH 7.4), in order to adjust the concentration of 10 μmol/L for testing. As a control solution, a DMSO diluted solution was used, instead of the test compound solution.
# The activity of the test compound was calculated as an increase rate (%) of the sGC activity in the test compound solution relative to the sGC activity in the control solution, by dividing a fluorescent intensity ratio in adding the test compound by a fluorescent intensity ratio of the control solution, and subtracting the sGC activity in the control solution (100%) therefrom. An EC50 value was calculated from the activity of the test compound at concentrations of 0.0001, 0.001, 0.003, 0.01, 0.03, 0.1, 1, and 10 μmol/L, using a 4 parameter losgistic model from Assay Explorer (available from Dssault Systèmes BIOVIA).
Structure (SMILES),logD [1],EC50 (human sGC)
"O=C(O)CCCCN(Cc1ccc(C(=O)O)cc1)CC(OCc1ccc(CCc2ccccc2)cc1)c1cccs1 (centres unmarked) [Compound No. 7, ([N-(4-carboxybutyl)-N-[2-[4-(2-phenylethyl)benzyloxy]-2-(2-thienyl)ethyl]amino]methyl)benzoic acid]",2.11,3.92 nM
"N#Cc1cccc([C@H](CN(CCCCC(=O)O)Cc2ccc(C(=O)O)cc2)OCc2ccc(CCc3ccccc3)cc2)c1 [Compound No. 1, (−)-4-([N-(4-carboxybutyl)-N-[(2R)-2-(3-cyanophenyl)-2-[4-(2-phenylethyl)benzyloxy]ethyl]amino]methyl)benzoic acid]",2.03,8.8 nM
"O=C(O)CCCCN(CCc1ccccc1OCc1ccc(OCc2ccccc2)cc1)C1CCOc2cc(C(=O)O)ccc21 (centres unmarked) [Compound No. 24, 4-[N-[2-[2-(4-benzyloxybenzyloxy)phenyl]ethyl]-N-(4-carboxybutyl)amino]-chromane-7-carboxylic acid]",2.4,8.73 nM
"O=C(O)CCCCN(CCc1ccccc1OC[C@H]1CCc2ccccc2C1)C1CCCc2cc(C(=O)O)ccc21 (stereo partly drawn) [Compound No. 17, 5-[N-(4-carboxybutyl)-N-[2-[2-((2S)-1,2,3,4-tetrahydronaphthalene-2-ylmethoxy)phenyl]ethyl]amino]-5,6,7,8-tetrahydronaphthalene-2-carboxylic acid]",2,11 nM
"O=C(O)CCCCN(CCc1ccccc1OCc1cc2c(s1)CCCC2)C1CCCc2cc(C(=O)O)ccc21 (centres unmarked) [Compound No. 19, 5-[N-(4-carboxybutyl)-N-[2-[2-(4,5,6,7-tetrahydrobenzo[b]thiophene-2-ylmethoxy)phenyl]ethyl]amino]-5,6,7,8-tetrahydronaphthalene-2-carboxylic acid]",1.74,33.5 nM
"CC(C)c1ccc(COc2ccccc2CCN(CCCCC(=O)O)[C@H]2CCCc3cc(C(=O)O)ccc32)cc1 [Compound No. 10, (+)-(5S)—[N-(4-carboxybutyl)-N-[2-[2-(4-isopropylbenzyloxy)phenyl]ethyl]amino]-5,6,7,8-tetrahydronaphthalene-2-carboxylic acid]",1.88,9.63 nM
O=C(O)CCCCN(CCc1ccccc1OCc1ccc(CCc2ccccc2)cc1)[C@H]1CCc2cc(C(=O)O)ccc21 [Compound No. 12],1.95,11.9 nM

# Next, values leading:
logD [1],EC50 (human sGC),Structure (SMILES)
2.24,15.6 nM,"O=C(O)CCCCN(CCc1ccccc1OCc1ccc(OCc2ccccc2)cc1)C1CCCc2cc(C(=O)O)ccc21 (centres unmarked) [Compound No. 26, 5-[N-[2-[2-(4-benzyloxybenzyloxy)phenyl]ethyl]amino-N-(4-carboxybutyl)]-5,6,7,8-tetrahydronaphthalene-2-carboxylic acid]"
1.8,1.61 nM,"O=C(O)CCCCN(Cc1ccc(C(=O)O)cc1)C[C@H](OCc1ccc(CCc2ccccc2)s1)c1ccccc1 [Compound No. 4, (−)-4-[(N-(4-carboxybutyl)-N-[(2R)-2-[5-(2-phenylethyl)thiophene-2-ylmethoxy]-2-phenylethyl]amino)methyl]benzoic acid]"
2.14,2.9 nM,"O=C(O)CCCCN(CCc1ccccc1OCc1ccc2c(c1)CCCC2)C1CCOc2cc(C(=O)O)ccc21 (centres unmarked) [Compound No. 18, 4-[N-(4-carboxybutyl)-N-[2-[2-(1,2,3,4-tetrahydronaphthalene-6-ylmethoxy)phenyl]ethyl]amino]-chromane-7-carboxylic acid]"
2.17,6.49 nM,"O=C(O)CCCCN(Cc1ccc(C(=O)O)cc1)C[C@H](OCc1ccc(Oc2ccc(Cl)cc2)cc1)c1ccccc1 [Compound No. 5, (−)-4-([N-(4-carboxybutyl)-N-[(2R)-2-[4-(4-chlorophenyloxy)benzyloxy]-2-phenylethyl]amino]methyl)benzoic acid]"
1.99,7.5 nM,"O=C(O)CCCCN(CCc1ccccc1OC[C@@H]1CCc2ccccc2C1)C1CCCc2cc(C(=O)O)ccc21 (stereo partly drawn) [Compound No. 16, 5-[N-(4-carboxybutyl)-N-[2-[2-((2R)-1,2,3,4-tetrahydronaphthalene-2-ylmethoxy)phenyl]ethyl]amino]-5,6,7,8-tetrahydronaphthalene-2-carboxylic acid]"
2.18,8.86 nM,"O=C(O)CCCCN(CCc1ccccc1OCc1ccc(COc2ccccc2)cc1)C1CCCc2cc(C(=O)O)ccc21 (centres unmarked) [Compound No. 22, 5-[N-(4-carboxybutyl)-N-[2-[2-(4-phenoxymethylbenzyloxy)phenyl]ethyl]amino]-5,6,7,8-tetrahydronaphthalene-2-carboxylic acid]"
